From PubChem BioAssay (NCI)
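Values below derive from 48-hour exposures of cells grown in 96-well plates, with endpoints linearly interpolated between the two concentrations bracketing the appropriate inhibition level. TGI: concentration producing complete growth inhibition.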

Tests used:
Assay in all cases: NCI tumour cell line growth inhibition, 48 h
[1] = system: CAKI-1 renal
[2] = system: 786-0 renal
[3] = system: SK-MEL-28 melanoma
[4] = system: A498 renal
[5] = system: OVCAR-3 ovarian
[6] = system: RPMI-8226 leukemia
[7] = system: T-47D breast
[8] = system: BT-549 breast
[9] = system: U251 CNS
[10] = system: NCI-H522 lung
[11] = system: HS 578T breast
[12] = system: HCT-116 colon
[13] = system: MDA-MB-231 breast
[14] = system: UACC-257 melanoma
[15] = system: UO-31 renal
[16] = system: SF-268 CNS
[17] = system: SNB-19 CNS
[18] = system: MCF7 breast
[19] = system: ACHN renal
[20] = system: SF-295 CNS
[21] = system: K-562 leukemia
[22] = system: MALME-3M melanoma
[23] = system: HL-60(TB) leukemia
[24] = system: PC-3 prostate
[25] = system: KM12 colon
[26] = system: SN12C renal
[27] = system: NCI/ADR-RES ovarian
[28] = system: M14 melanoma
[29] = system: HT29 colon
[30] = system: SK-MEL-2 melanoma
[31] = system: MOLT-4 leukemia
[32] = system: RXF 393 renal
[33] = system: NCI-H460 lung
[34] = system: A549 NSCLC
[35] = system: LOX IMVI melanoma
[36] = system: SR leukemia
[37] = system: IGROV1 ovarian
[38] = system: OVCAR-4 ovarian
[39] = system: HOP-92 NSCLC
[40] = system: NCI-H226 lung
[41] = system: CCRF-CEM leukemia
[42] = system: SK-OV-3 ovarian
[43] = system: SW-620 colon
[44] = system: HOP-62 NSCLC
[45] = system: MDA-MB-435
[46] = system: SNB-75 CNS
[47] = system: EKVX NSCLC
[48] = system: NCI-H23 lung
[49] = system: COLO 205 colon
[50] = system: SF-539 CNS
[51] = system: UACC-62 melanoma
[52] = system: HCT-15 colon
[53] = system: DU-145 prostate
[54] = system: MDA-N
[55] = system: OVCAR-8 ovarian
[56] = system: OVCAR-5 ovarian
[57] = system: SK-MEL-5 melanoma
[58] = system: HCC-2998 colon

SMILES: Oc1ccc(-c2nc3ccccc3s2)cc1
- TGI [1]: 58.3 µM
- TGI [2]: > 100 µM
- TGI [3]: > 100 µM
- TGI [4]: > 100 µM
- TGI [5]: > 100 µM
- TGI [6]: > 100 µM
- TGI [7]: 70 µM
- TGI [8]: > 100 µM
- TGI [9]: > 100 µM
- TGI [10]: 47.9 µM
- TGI [11]: 78.8 µM
- TGI [12]: 74.9 µM
- TGI [13]: 63.4 µM
- TGI [14]: > 100 µM
- TGI [15]: > 100 µM
- TGI [16]: 90.2 µM
- TGI [17]: > 100 µM
- TGI [18]: > 100 µM
- TGI [19]: > 100 µM
- TGI [20]: > 100 µM
- TGI [21]: > 100 µM
- TGI [22]: > 100 µM
- TGI [23]: > 100 µM
- TGI [24]: > 100 µM
- TGI [25]: 38.8 µM
- TGI [26]: > 100 µM
- TGI [27]: > 100 µM
- TGI [28]: > 100 µM
- TGI [29]: > 100 µM
- TGI [30]: 67.3 µM
- TGI [31]: > 100 µM
- TGI [32]: > 100 µM
- TGI [33]: > 100 µM
- TGI [34]: > 100 µM
- TGI [35]: 45 µM
- TGI [36]: 87.7 µM
- TGI [37]: > 100 µM
- TGI [38]: > 100 µM
- TGI [39]: > 100 µM
- TGI [40]: > 100 µM
- TGI [41]: > 100 µM
- TGI [42]: 86 µM
- TGI [43]: > 100 µM
- TGI [44]: > 100 µM
- TGI [45]: > 100 µM
- TGI [46]: > 100 µM
- TGI [47]: > 100 µM
- TGI [48]: 79.1 µM
- TGI [49]: > 100 µM
- TGI [50]: > 100 µM
- TGI [51]: > 100 µM
- TGI [52]: > 100 µM
- TGI [53]: > 100 µM
- TGI [54]: > 100 µM
- TGI [55]: > 100 µM
- TGI [56]: > 100 µM

SMILES: CC(C)Oc1cccc(N2C(Nc3ccccc3)=Nc3ccncc3S2(=O)=O)c1
- TGI [1]: > 100 µM
- TGI [2]: 52.5 µM
- TGI [3]: 17.2 µM
- TGI [4]: 79.9 µM
- TGI [5]: 52.4 µM
- TGI [7]: 90.1 µM
- TGI [8]: 66.4 µM
- TGI [9]: > 100 µM
- TGI [10]: > 100 µM
- TGI [11]: > 100 µM
- TGI [12]: > 100 µM
- TGI [13]: > 100 µM
- TGI [14]: 50.4 µM
- TGI [15]: > 100 µM
- TGI [16]: > 100 µM
- TGI [17]: > 100 µM
- TGI [18]: > 100 µM
- TGI [19]: 84.8 µM
- TGI [20]: 95.1 µM
- TGI [21]: > 100 µM
- TGI [22]: 63.7 µM
- TGI [23]: 6.01 µM
- TGI [24]: 45.6 µM
- TGI [25]: 65.8 µM
- TGI [26]: > 100 µM
- TGI [27]: 53.3 µM
- TGI [28]: > 100 µM
- TGI [29]: > 100 µM
- TGI [30]: > 100 µM
- TGI [31]: > 100 µM
- TGI [32]: 95.6 µM
- TGI [33]: > 100 µM
- TGI [34]: > 100 µM
- TGI [35]: 38.5 µM
- TGI [36]: > 100 µM
- TGI [37]: 87.6 µM
- TGI [38]: > 100 µM
- TGI [39]: 49 µM
- TGI [40]: 83.2 µM
- TGI [41]: 62.4 µM
- TGI [42]: > 100 µM
- TGI [43]: 57.4 µM
- TGI [44]: > 100 µM
- TGI [45]: 57 µM
- TGI [46]: > 100 µM
- TGI [47]: > 100 µM
- TGI [57]: 26.6 µM
- TGI [48]: > 100 µM
- TGI [49]: 28.8 µM
- TGI [50]: 44.9 µM
- TGI [58]: 71.5 µM
- TGI [51]: > 100 µM
- TGI [52]: 75.5 µM
- TGI [53]: > 100 µM
- TGI [54]: > 100 µM
- TGI [55]: 43.4 µM
- TGI [56]: > 100 µM
